Data reported in article PMC8301170, “New Benzimidazothiazolone Derivatives as Tyrosinase Inhibitors with Potential Anti-Melanogenesis and Reactive Oxygen Species Scavenging Activities” (Antioxidants, 2021).
Entries after “also recorded” stand apart in the source; their conditions may differ. One block for each compound: values may come before it.

How the values were obtained:
[1] = ROS scavenging activity, DCFDA assay, cell-free in vitro; settings: SIN-1-induced oxidative stress
Procedure: (§1) ROS scavenging activity was determined according to the method reported by Ali et al. and Lebel and Bondy. Briefly, 2′,7′-Dichlorodihydrofluorescein-diacetate (DCFH-DA) (2.5 mM, Molecular Probes, Eugene, OR, USA) mixed with esterase (1.5 units/mL), was incubated at 37 °C for 30 min and placed on ice in the dark until immediately prior to the study. Phosphate buffer (50 mM) at pH 7.4 was used. To determine intracellular ROS scavenging activity, B16F10 cells (1 × 10^4/well) were seeded in black 96-well plates. After 24 h, the cells were incubated with DCFH-DA (20 µM) and SIN-1 ([…]) for 30 min to induce ROS generation. The fluorescence intensity of oxidized DCFH was measured using a fluorescent microplate reader at excitation and emission wavelengths of 485 and 530 nm, respectively (Tecan, Männedorf, Switzerland). Trolox was used as the positive control.
ROS may regulate melanogenesis in melanoma cells. The principle of the intracellular ROS assay is that DCF-DA spreads through the cell membrane and is enzymatically hydrolyzed to […] by esterase; DCFH then responses with ROS to yield DCF [56]. The ROS scavenging activity of compounds 1–3 was investigated in vitro by using fluorescence probes, (DCF-DA) for ROS. SIN-1 is used as an NO donor [57, 58]. […] . […] The importance of catechol moiety (3,4-dihydroxy group) for ROS scavenging activity was reported in previous studies in the literature.
Figure 5 Reactive oxygen species (ROS) scavenging activity of compound 2. The inhibitory effect of compound 2 on ROS production was evaluated. A DCFDA assay was performed to determine ROS levels. The ROS scavenger trolox was used as the positive control. The scavenging activity of compound 2 on oxidative stress induced by 10 µM SIN-1 was estimated in cell-free in vitro (A). B16F10 cells were pre-treated with compound 2 and trolox for 3 h and further treated with 10 µM SIN-1 (B).

[2] = biological target: mushroom tyrosinase (Agaricus bisporus, UniProt C7FF04); experiment: Enzyme kinetic analysis of mushroom tyrosinase (Lineweaver–Burk and Dixon plots); assay type: biochemical; settings: L-tyrosine substrate 0.5–4 mM
Sequence of mushroom tyrosinase (C7FF04 1-392): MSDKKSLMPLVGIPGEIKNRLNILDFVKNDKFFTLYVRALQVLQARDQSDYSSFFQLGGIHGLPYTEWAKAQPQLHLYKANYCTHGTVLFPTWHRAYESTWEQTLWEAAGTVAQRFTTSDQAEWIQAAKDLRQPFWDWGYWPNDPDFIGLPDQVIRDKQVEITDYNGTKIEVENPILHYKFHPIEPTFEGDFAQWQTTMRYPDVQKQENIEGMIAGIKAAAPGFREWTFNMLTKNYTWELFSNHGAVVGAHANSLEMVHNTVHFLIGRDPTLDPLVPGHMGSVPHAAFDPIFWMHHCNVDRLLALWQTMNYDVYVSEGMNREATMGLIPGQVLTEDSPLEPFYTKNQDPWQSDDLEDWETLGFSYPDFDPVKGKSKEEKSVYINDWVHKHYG
Procedure: Lineweaver–Burk and Dixon plots were used to calculate the inhibition mode and inhibition constant (Ki) against mushroom tyrosinase. Kinetic parameters for various concentrations of the L-tyrosine substrate (0.5–4 mM) and inhibitors (0.4, 2, and 10 µM for compound 1; and 2, 4, and 8 µM for compound 2; and 2.5, 5, and 10 µM for compound 3, respectively) were achieved.
To elucidate the type of enzymatic inhibition, a kinetic analysis was accomplished at several concentrations of the L-tyrosine substrate and inhibitors (1–3), according to the Lineweaver–Burk and Dixon plot methods (Table 3 and Figure 2). […] Furthermore, the Dixon plot is a graphical method [plot of 1/enzyme velocity (1/V) against inhibitor concentration (I)] used to determine the type of enzymatic inhibition and the dissociation or inhibition constant (Kic) for the enzyme-inhibitor complex.
Figure 2 Enzymatic kinetics study of compounds 1–3 against tyrosinase. Lineweaver–Burk plots for the inhibition of mushroom tyrosinase of compounds 1 (A), 2 (B), and 3 (C). Dixon plots for tyrosinase inhibition of compounds 1 (D), 2 (E), and 3 (F) using L-tyrosine as the substrate.

[3] = test system: B16F10 cells; experiment: Melanin contents in α-MSH and IBMX-induced B16F10 cells; settings: α-MSH and IBMX 48 h, 5, 10 and 20 µM
Text: All results were standardized to the total protein concentration of the cell lysates using the bicinchoninic acid (BCA) reagent (Thermo Fisher Scientific, Waltham, MA, USA).

[4] = test system: B16F10 cells; experiment: Intracellular ROS levels in SIN-1-treated B16F10 cells; assay type: cell-based, mouse; settings: pre-treated 3 h, then SIN-1
Procedure: as §1
ROS may regulate melanogenesis in melanoma cells. The principle of the intracellular ROS assay is that DCF-DA spreads through the cell membrane and is enzymatically hydrolyzed to […] by esterase; DCFH then responses with ROS to yield DCF [56]. The ROS scavenging activity of compounds 1–3 was investigated in vitro by using fluorescence probes, (DCF-DA) for ROS. SIN-1 is used as an NO donor [57, 58]. […]
Figure 5 Reactive oxygen species (ROS) scavenging activity of compound 2. The inhibitory effect of compound 2 on ROS production was evaluated. […]

[5] = test system: tyrosinase, p-CREB, p-PKA, MITF, p-JNK, p-ERK, p-p38; experiment: Western blot analysis of melanogenic signaling proteins in α-MSH- and IBMX-induced B16F10 cells; assay type: cell-based, mouse
Procedure: Lysed samples were boiled for 10 min with gel-loading buffer (0.125 M Tris-HCl, pH 6.8, 4% SDS, 10% 2-mercaptoethanol and 0.2% bromophenol blue) at a volume ratio of 1:1. Total protein equivalents were separated with SDS-PAGE using 9–10% acrylamide gels and then transferred onto polyvinylidene fluoride membranes (Millipore, Burlington, MA, USA) at 25 V for 10 min in a semi-dry transfer system (Bio-Rad Laboratories, Hercules, CA, USA). The membranes were immediately placed in blocking buffer (5% non-fat milk) in 10 mM Tris (pH 7.5), 100 mM NaCl, and 0.1% Tween-20. The blots were blocked at room temperature for 1 h. The membranes were incubated with appropriate specific primary antibodies at 4 °C overnight and then treated with horseradish peroxidase-conjugated anti-mouse, anti-rabbit or anti-goat antibodies (1:5000) at 25 °C for 1 h (Santa Cruz Biotechnology, Dallas, TX, USA). Protein bands were visualized using the SuperSignal® West Pico Chemiluminescent Substrate kit (Advansta, San Jose, CA, USA) and Davinch-Chemi^TM (Davinch-K, Seoul, Korea).
It is important to determine whether the inhibition of melanin synthesis by compound 2 is related to melanogenesis signaling and gene expression. […] MITF, a leucine zipper transcription factor, activates the expression of multiple genes encoding enzymes involved in the conversion of tyrosine into melanin, resulting in increased levels of these melanin-producing proteins. […] The skin is site of oxidative stress due to exposure to daylight and environmental oxidizing pollutants. It is known that ROS stimulates α-MSH- and IBMX-induced production in melanoma cells leading to melanogenesis by upregulating MITF, a transcription factor that induces tyrosinase gene expression. […] However, the levels of phosphorylated p38 were not affected by treatment with compound 2. In our study, both p-JNK and p-ERK were decreased by compound 2.
(§2) Figure 7 Effects of compound 2 on melanogenic proteins and mRNA levels in α-MSH- and IBMX-induced B16F10 cells. […] The expression levels of tyrosinase, p-CREB, p-PKA, p-JNK, p-ERK, p-p38, and β-actin were determined with Western blotting in the cytosolic fraction. β-actin was used as the loading control (A,B,D,E). The expression levels of MITF and TFIIB were determined with Western blotting in the nuclear fraction. TFIIB was used as the loading control (C). Relative mRNA levels of the melanogenic genes MITF, Tyrosinase, Trp1, and Trp2 in the cells were quantified using real-time qPCR and normalized to the GAPDH mRNA level (F).

[6] = test system: MITF, tyrosinase, TRP1, TRP2 mRNA; experiment: Real-time qPCR of melanogenic genes in α-MSH- and IBMX-induced B16F10 cells; assay type: cell-based, mouse; settings: normalized to GAPDH
Procedure: RNA from cell samples was purified using the RiboEx Total RNA solution (GeneAll Biotechnology, Seoul, Korea) according to the manufacturer’s instructions. Total RNA (2 µg) treated with ribonuclease (RNase) free deoxyribonuclease (DNase) was reverse-transcribed using Hyperscript^TM One-Step RT-PCR (GeneAll Biotechnology, Seoul, Korea). Real-time qPCR was performed using the SensiFAST^TM SYBR® No-ROX dye (Bioline, London, UK.) and a CFX Connect System (Bio-Rad Laboratories, Hercules, CA, USA). Relative gene expression was calculated with the standard curve method using GAPDH as the internal control. Ct values were obtained with qPCR. Three independent tests were performed.
The effects of compound 2 on the expression of mRNA melanogenic factors were evaluated in α-MSH- and IBMX-induced B16F10 cells. […] The mRNA levels of tyrosinase, TRP1, TRP2, and MITF were quantified with real-time qPCR (Figure 7F).
as §2, with “TFIIB was used as the loading control (C). Relative mRNA levels of the melanogenic genes MITF, Tyrosinase, Trp1, and Trp2 in the cells were quantified using real-time qPCR and normalized to the GAPDH mRNA level (F).” left out

[7] = test system: B16F10 cells; experiment: Cell viability, EZ-Cytox assay; assay type: cell-based, mouse; settings: 5–200 µM, 48 h, vs vehicle control
Procedure: The mouse melanoma cell line B16F10 was acquired from American Type Culture Collection (ATCC®; CCL-6475™) (Manassas, VA, USA) and cultured in DMEM, supplemented with 10% fetal bovine serum (FBS) and 1% penicillin–streptomycin, at 37 °C in a humidified 5% CO2 atmosphere. Cell viability assays were performed with minor modifications, as previously reported. Cell viability was evaluated using the EZ-Cytox assay kit (DaeilLab, Seoul, Korea). The compounds were dissolved in DMSO for the in vitro experiments.
The EZ-Cytox assay was used to estimate cell viability. […] Consequently, 20 µM sample concentrations of compounds 1–3 and trolox were used for further experiments.
Figure 4 Effects of compounds 1–3 and trolox on the viability of B16F10 cells. Cells were incubated with different concentrations (5–200 µM) of compound 1 (A), 2 (B), 3 (C), and trolox (D) for 48 h, and cell viability was determined using EZ-Cytox assay. *** p < 0.001 vs. DMSO-treated.

[8] = cytosolic fraction, 5, 10 and 20 µM

SMILES: O=c1/c(=C/c2ccc(O)cc2)sc2nc3ccccc3n12 [Compound 1]
melting point: ≥ 300 °C | IC50 [1]: ≥ 50 µM | Inhibition Type [2]: Competitive | effect on melanin contents [3]: reduced the melanin content at 20 µM

SMILES: O=c1/c(=C/c2ccc(O)c(O)c2)sc2nc3ccccc3n12 [Compound 2]
melting point: ≥ 300 °C | IC50 [1]: 2.36 ± 0.48 µM | Inhibition Type [2]: Competitive | SIN-1-induced ROS generation in cells [4]: dose-dependently scavenged ROS; also recorded: reduced SIN-1-induced ROS generation in a dose-dependent manner | expression of tyrosinase, phosphorylated CREB and PKA [5, 8]: decreased their expression on these proteins in a dose-dependent manner | levels of phosphorylated JNK and ERK [5, 8]: decreased the levels of phosphorylated JNK and ERK in a concentration-dependent manner | levels of phosphorylated p38 [5, 8]: not affected | MITF levels ([5]; nuclear fraction, 5, 10 and 20 µM): significantly suppressed MITF levels | mRNA levels of tyrosinase, TRP1, TRP2 and MITF [6]: significantly inhibited the expression

SMILES: O=c1/c(=C/c2ccc(O)cc2O)sc2nc3ccccc3n12 [Compound 3]
melting point: 263.7 to 268.3 °C | IC50 [1]: ≥ 50 µM | Inhibition Type [2]: Competitive

SMILES: COc1cc(/C=c2\sc3nc4ccccc4n3c2=O)ccc1O [Compound 4]
melting point: 262.3 to 264 °C

SMILES: CCOc1cc(/C=c2\sc3nc4ccccc4n3c2=O)ccc1O [Compound 5]
melting point: 210.7 °C

SMILES: COc1ccc(/C=c2\sc3nc4ccccc4n3c2=O)cc1O [Compound 6]
melting point: 249.6 to 252.1 °C

SMILES: COc1ccc(/C=c2\sc3nc4ccccc4n3c2=O)cc1 [Compound 7]
melting point: 239.5 to 241.8 °C

SMILES: COc1ccc(/C=c2\sc3nc4ccccc4n3c2=O)cc1OC [Compound 8]
melting point: 236.7 to 236.9 °C

Now from value to compound, other results behind:

melting point: 250.1 to 257.5 °C
SMILES: COc1ccc(/C=c2\sc3nc4ccccc4n3c2=O)c(OC)c1 [Compound 9]

melting point: 244.2 to 245.2 °C
SMILES: O=c1/c(=C/c2ccccc2O)sc2nc3ccccc3n12 [Compound 10]

melting point: 215.1 °C
SMILES: COc1cc(/C=c2\sc3nc4ccccc4n3c2=O)cc(OC)c1OC [Compound 11]

melting point: 261.9 to 269.1 °C
SMILES: COc1cc(/C=c2\sc3nc4ccccc4n3c2=O)cc(OC)c1O [Compound 12]

melting point: 293.7 to 297 °C
SMILES: O=c1/c(=C/c2ccc(O)c(Br)c2)sc2nc3ccccc3n12 [Compound 13]

IC50 [1]: 13.2 ± 0.73 µM
SMILES: Cc1c(C)c2c(c(C)c1O)CCC(C)(C(=O)O)O2 (stereo not shown) [Trolox, reference compound]
cell viability [7]: did not significantly affect cell viability at concentrations up to 20 µM
